Patent US5530138A, “Compounds and use thereof” (priority 1993, dated 1996)

Biological target: T1, binding of 3H-pirenzepine to brain homogenate of rat (Rattus norvegicus, UniProt P08482)
T1 construct: from tissue; host or cells: brain of male SD rats, cerebellum removed; supernatant of 1000×g, re-homogenized
T1 sequence (P08482 1-460): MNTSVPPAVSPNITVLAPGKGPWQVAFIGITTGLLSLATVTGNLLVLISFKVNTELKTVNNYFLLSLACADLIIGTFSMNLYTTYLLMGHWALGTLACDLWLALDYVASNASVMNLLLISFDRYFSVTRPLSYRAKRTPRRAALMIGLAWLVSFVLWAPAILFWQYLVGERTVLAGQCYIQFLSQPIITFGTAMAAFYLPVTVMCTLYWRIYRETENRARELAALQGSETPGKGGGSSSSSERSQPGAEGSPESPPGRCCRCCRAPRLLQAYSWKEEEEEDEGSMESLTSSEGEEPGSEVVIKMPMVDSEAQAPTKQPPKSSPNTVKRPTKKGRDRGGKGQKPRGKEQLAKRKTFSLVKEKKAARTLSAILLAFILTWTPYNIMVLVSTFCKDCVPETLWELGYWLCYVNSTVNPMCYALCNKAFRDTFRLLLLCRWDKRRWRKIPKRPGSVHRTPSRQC
Assay: Inhibition against binding of 3H-pirenzepine to brain homogenate of rat
Conditions: 2.0 nM 3H-pirenzepine; rat brain homogenate without cerebellum; 550 mM phosphate buffer pH 7.4; 60 minutes at room temperature; read-out: 50% inhibition (IC50) against binding of 3H-pirenzepine to brain homogenate
Experimental: (Inhibition against binding of 3H-pirenzepine to brain homogenate of rat)
A brain homogenate of rat was prepared in accordance with the method described by Yamanura and Synder ["Proc. Natr. Acad. Sci. USA", Vol. 71, pages 1725-1729 (1974)]. Namely, SD male rats were killed by decapitation to exentrate each brain. From the brains, each cerebellum was removed and 0.32 M aqueous sucrose solution in 10-folds by volume was added under ice-cooling condition to homogenize the same by a Potter-Elvehjem type glass homogenizer. The resulting homogenate was centrifuged for 10 minutes (1000×g) to obtain a supernatant by removing a precipitate, which supernatant was further homogenized by a homogenizer of "Polytron" to obtain a fraction to be used as a brain homogenate.
Tests were carried out according to the method described by Flynn and Mash ["J. Pharm. Exp. Ther.", Vol. 250, pages 573-581 (1989). Namely, to the brain homogenate (0.035 ml, protein content: 0.6 mg), 550 mM phosphate buffer (pH 7.4, 1 ml) containing 2.0 nM ^3 H-pirenzepine and a Test or Control compound (1 ml, if the test or control compound is solid form, it is dissolved by the 550 mM phosphate buffer) were added to cause a reaction for 60 minutes at room temperature. Then, an ice-cooled buffer (3.0 ml) same with the above was added to the reaction mixture. Thereafter, the mixture was filtrated by a Whattman GF/B filter which was previously dipped in 0.1% polyethyleneimine solution for 60 minutes. The filter was washed twice by the buffer solution (each 3.0 ml) and an emulsion scintillatot for measuring luminescence by a scintillation counter. A 50% inhibition (IC50)of the test or control compound against binding of 3H-pirenzepine to brain homogenate was calculated.

Row | Structure (SMILES) | IC50 [nM]
1 | C=C1CC2(CCN(C)CC2)OC1C (stereo not drawn) [2,8-Dimethyl-3-methylene-1-oxa-8-azabicyclo-[4.5]decane, reference compound] | 23600
2 | CN(CC12CCCN1CCC2)c1ccc(Cl)c2ccccc12 [Example 1, 1-[N-(1-Azabicyclo[3.3.0]octan-5-yl)methyl-N-methylamino]-4-chloronaphthalene] | 10
3 | COc1ccc(N(C)CC23CCCN2CCC3)c2ccccc12 [Example 3, 1-[N-(1-Azabicyclo[3.3.0]octan-5-yl)methyl-N-methylamino]-4-methoxynaphthalene] | 90
4 | CN(CC12CCCN1CCC2)c1cccc2ccccc12 [Example 6, 1-[N-(1-Azabicyclo[3.3.0]octan-5-yl)methyl-N-methylamino]-naphthalene] | 30
5 | CN(CC12CCCN1CCC2)c1ccc(F)c2ccccc12 [Example 8, 1-[N-(1-Azabicyclo[3.3.0]octan-5-yl)methyl-N-methylamino]-4-fluoronaphthalene] | 20
6 | CCN(CC12CCCN1CCC2)c1ccc([N+](=O)[O-])c2ccccc12 [Example 12, 1-[N-(1-azabicyclo[3.3.0]octan-5-yl)methyl-N-ethylamino]-4-nitronaphthalene] | 200
7 | O=CN(CC12CCCN1CCC2)c1ccccc1 [Example 13, N-(1-azabicyclo[3.3.0]octan-5-yl)methyl-N-formylaniline] | 300
8 | CN(CC12CCCN1CCC2)c1ccccc1[N+](=O)[O-] [Example 17, N-(1-azabicyclo[3.3.0]octan-5-yl)methyl-N-methyl-2-nitroaniline] | 200
9 | CN(CC12CCCN1CCC2)c1ccccc1-c1ccccc1 [Example 20, N-(1-Azabicyclo[3.3.0]octan-5-yl)methyl-N-methyl-2-phenylaniline] | 100
10 | O=[N+]([O-])c1ccccc1NCCC12CCCN1CCC2 [Example 23, N-[2-(1-Azabicyclo[3.3.0]octan-5-yl)ethyl]-2-nitroaniline] | 100
11 | CN(CCC12CCCN1CCC2)c1ccccc1[N+](=O)[O-] [Example 25, N-[2-(1-Azabicyclo[3.3.0]octan-5-yl)ethyl]-N-methyl-2-nitroaniline] | 200
12 | N#Cc1ccccc1NCCC12CCCN1CCC2 [Example 27, 2-[2-(1-Azabicyclo[3.3.0]octan-5-yl)ethylamino]benzonitrile] | 320
13 | N#Cc1ccc(NCCC23CCCN2CCC3)cc1 [Example 28, 4-[2-(1-Azabicyclo[3.3.0]octan-5-yl)ethylamino]-benzonitrile] | 4570
14 | CN(CCC12CCCN1CCC2)c1ccccc1C#N [Example 29, 2-{[2-(1-Azabicyclo[3.3.0]octan-5-yl)ethyl]methylamino}-benzonitrile] | 240
15 | Clc1ccccc1NCCC12CCCN1CCC2 [Example 30, N-[2-(1-Azabicyclo[3.3.0]octan-5-yl)ethyl]-2-chloroaniline] | 430
16 | Fc1ccccc1NCCC12CCCN1CCC2 [Example 31, N-[2-(1-Azabicyclo[3.3.0]octan-5-yl)ethyl]-2-fluoroaniline] | 1590
17 | O=[N+]([O-])c1cc(F)ccc1NCCC12CCCN1CCC2 [Example 32, N-[2-(1-Azabicyclo[3.3.0]octan-5-yl)ethyl]-4-fluoro-2-nitroaniline] | 690
18 | N#Cc1ccccc1NCC12CCCN1CCC2 [Example 34, 2-[(1-Azabicyclo[3.3.0]octan-5-yl)methylamino]benzonitrile] | 550
19 | O=[N+]([O-])c1ccccc1NCCC12CCCN1CCC2 [Example 36, N-[2-(1-Azabicyclo[3.3.0]octan-5-yl)ethyl]-2-nitroaniline(fumarate)] | 90

Same assay, conditions: read-out: 50% inhibition (IC50) against binding of 3H-pirenzepine to brain homogenate; 2.0 nM 3H-pirenzepine; rat brain homogenate without cerebellum; 550 mM phosphate buffer pH 7.4; 60 minutes at room temperature

Row | Structure (SMILES) | IC50 [nM]
20 | NC(=O)c1ccccc1NCCC12CCCN1CCC2 [Example 33, 2-{[2-(1-Azabicyclo[3.3.0]octan-5-yl)ethyl]amino}benzamide] | 1110

System: acetylchotine esterass
Assay: not given
Conditions: background; cited from earlier work

Row | Structure (SMILES) | inhibition to acetylcholine esterase
21 | Nc1c2c(nc3ccccc13)CCCC2 [THA, 1,2,3,4tetrahydro-9-aminoacridine] | its action cannot be said as powerful
